This is an account of results in patent publication US4370335A, “Antisecretory 4-diphenylmethyl-1-[(oxoalkyl)imino]methyl-piperidines and their derivatives” (McNeilab, Inc., priority 1982, dated 1983).

Where a name gives a salt, the structure may show the parent alone.

The assay relates to gastric acid secretion. As to the kind of experiment: Acute Gastric Fistula, Rat: inhibition of gastric acid secretion (Total Acid Output). Conditions: po, 1 h, one hour prior to surgery, dose for average 50% inhibition in Total Acid Output versus controls, collection at one hour. It is filed as in vivo, Female Sprague-Dawley rats. The protocol:
The compounds of the invention are useful for inhibition of gastric acid secretion as measured by the following test. Female Sprague-Dawley rats are fasted twenty-four hours before testing and are given water ad libidum while being kept in individual cages. On the day of testing, the rats are weighed and are selected so that the rats in each test weigh within a range ±20 grams.
Surgery is carried out under light ether anesthesia. As soon as the rat is anesthetized its teeth are removed and a mid-line incision is made on the abdomen about 11/2 inches in length and the stomach and duodenum are exposed. If at this point the stomach is filled with food or fecal material, the rat is discarded. If the condition of the stomach is acceptable, a purse string stitch is placed on the fundic portion of the stomach with a suture, taking care not to pierce any blood vessels in the area. A small nick is then made into the stomach in the center of the purse string, and a cannula, consisting of a small vinyl tube with a flange on one end, is put into the stomach, and the purse string stitch is closed tightly around the flange. The test compound is administered either intraduodenally (i.d.) immediately after surgery or orally (p.o.) one hour prior to surgery at doses generally ranging from about 0.25 to about 160 mg/kg in a volume of 0.5 ml/100 grams rat. Control rats receive the test vehicle, 0.5% aqueous methyl cellulose.
After the surgery and (in the case of i.d. administration) after administration of the test compound, the abdominal wall and skin are closed simultaneously with three or four 18 mm wound clips and a collecting tube is placed on the cannula. Each rat is then placed in a box in which a longitudinal slit has been made to allow the cannula to hang freely and to allow the rat to move about unencumbered. After the rat has been allowed to stabilize for thirty minutes, the collection tube on the cannula is discarded and replaced with a clean tube to receive the gastric juice. Collections are made at one hour. At the end of the study, the cannula is removed and the rat is sacrificed.
The sample of gastric contents collected is drained into a centrifuge tube and centrifuged to pack down the sediment. The volume is read and a 1 ml aliquot of the supernatant is put into a beaker containing 10 ml distilled water and is titrated to pH 7 using 0.01 N sodium hydroxide. Results are determined for Volume, Titratable Acid and Total Acid Output, where Volume equals total ml of gastric juice minus sediment; Titratable Acid (meq/l) equals amount of 0.01 N sodium hydroxide needed to titrate the acid to pH 7; and Total Acid Output equals Titratable Acid times Volume. Results are reported as the ED50 dose (mg/kg required to produce an average of 50% inhibition in Total Acid Output versus controls in all the animals tested for a particular compound) and as percent inhibition.
The results obtained for representative compounds of the invention by the above test for inhibition of gastric secretion are shown in Table I: […]

For `CC(O)CCCCCCN=CN1CCC(C(c2ccccc2)c2ccccc2)CC1` (stereo not drawn) [Example 3, 4-(Diphenylmethyl)-1-{[(7-hydroxyoctyl)imino]methyl}piperidine 2-Naphthalenesulfonate (1:1) Hydrate (4:1)], it took a dose of 78.1 mg/kg to reach the 50% effect level (ED50).

On to `CC(=O)CN=CN1CCC(C(c2ccccc2)c2ccccc2)CC1` [Example 6, 4-Diphenylmethyl-1-[(2-oxopropyl)imino]methyl piperidine Hydrochloride (1:1) Hydrate (10:1)], for which the 50% effect level (ED50) was put at a dose of 6.07 mg/kg.

On to `CC(CCCCCCN=CN1CCC(C(c2ccccc2)c2ccccc2)CC1)=NO` [Example 4, 4-(Diphenylmethyl)-1-{{[7-(hydroxyimino)octyl]imino}methyl}piperidine 2-Naphthalenesulfonate (1:1) Hydrate (5:1)], for which the ED50 – broadly, the dose that gives a 50% effect, or the effect in half of the subjects – is 12.3 mg/kg.

In turn, `CC(=O)CCCCCCCCN=CN1CCC(C(c2ccccc2)c2ccccc2)CC1` [Example 5] came in with a median effective dose (ED50) of 4.76 mg/kg.

For the molecule `CC(=O)CCCCCCN=CN1CCC(C(c2ccccc2)c2ccccc2)CC1` [Example 2, 4-(Diphenylmethyl)-1-{[(7-oxooctyl)imino]methyl}piperidine (E)-2-Butenedioate (1:1) Hydrate (10:7)], it took a dose of 14.7 mg/kg to reach the 50% effect level (ED50).

For `CC1(CCCCCCN=CN2CCC(C(c3ccccc3)c3ccccc3)CC2)OCCO1` [Example 1, 4-(Diphenylmethyl)-1-{{[6-(2-methyl-1,3-dioxolan-2-yl)hexyl]imino}methyl}piperidine (E)-2-Butenedioate (1:1) Hydrate (10:7)], the ED50 stood at 3.14 mg/kg.
